Reference: patent US11884747B2, “Compstatin analogs with increased solubility and improved pharmacokinetic properties” (The Trustees of the University of Pennsylvania, priority 2018, dated 2024)
Where “and” joins values, the source holds several entries; their conditions need not be identical. Identical values can stand only once. Like-named read-outs stand apart in the source and are kept apart here. Marks after values point to notes of the source that are not given here.

How the values were obtained:
[1] = Pharmacokinetics after single i.v. injection; format: in vivo, cynomolgus monkeys
Experimental: FIG. 11 show graphs of peptide concentration over time in cynomolgus monkeys to which was administered a single 2 mg/kg intravenous injection of Cp40-KK (panel a), Cp40-KKK (panel b), mPEG(1 k)-Cp40 (panel c), and mPEG(3 k)-Cp40 (panel d). […]
In vivo pharmacokinetic studies were conducted, in which cynomolgus monkeys were administered single i.v. injections of mPEG(1 k)-Cp40, mPEG(3 k)-Cp40, Cp40-KK, or Cp40-KKK.

[2] = test system: complement classical pathway; experiment: Classical pathway activation (C3b deposition) ELISA in human plasma with or without rabbit vitreous; format: biochemical; conditions: in the absence of vitreous
Experimental: An alternative explanation to the one presented above is that the vitreous contains additional unidentified factors that associate with the Cp40-KKK analog. To investigate whether an unidentified vitreous factor impacts the complement inhibitory activity of lysine containing compounds, complement activation assays were performed using vitreous samples. Briefly, human plasma was incubated with OVA-anti-OVA immune-complexes in the presence of serial dilutions of the Cp40-based analogs mixed with rabbit vitreous. Levels of classical pathway activation (C3b deposition) were determined by ELISA using a polyclonal anti-human C3 antibody conjugated with HRP (MP Biomedicals, Solon, OH) (FIG. 20).

[3] = test system: classical pathway of complement; experiment: Classical pathway complement inhibition ELISA (C3b deposition) in normal human plasma; format: biochemical; conditions: human plasma diluted 1:40; mean of at least three experiments
Experimental: For this purpose, microtiter wells (NUNC) were coated with 50 μl of 1% ovalbumin in PBS (pH 7.4) at ambient temperature for 2 h. The wells were blocked with 200 μl of 1% BSA in PBS for 1 h, then coated with 50 μl of 1:1000 α-ovalbumin polyclonal antibody in PBS for 1 h. Between each step, the plate was washed thrice with 200 μl of 0.05% Tween 20 in PBS (PBS-T); 30 μl of VBS (Veronal buffer 1×; 5 mM veronal, pH 7.4, containing 150 mM NaCl, 0.5 mM CaCl2 and 0.5 mM MgCl2) were placed in all but the first well of each row of the 96-well plate, and 5 μM peptide solutions in VBS were prepared. […] Human plasma diluted 1:40 in VBS was incubated for 15 min with peptide of 0.005 to 2.5 μM. After washing with PBS-T, 50 μl/well of 1:1000 goat a-human C3 HRP conjugated antibody in 1% BSA in PBS was added to the wells and incubated for 1 h at room temperature. Complement fixation indicating activation was detected by the addition of HRP substrate (0.05% ABTS and 0.1% of 30% aqueous H2O2 in 0.1 M sodium citrate, pH 4.2) and read at 405 nm. The absorbance data obtained at 405 nm were translated into % inhibition, considering 100% to be equal to complement activation in the absence of peptide. The percent inhibition was plotted against the logarithm of concentrations, and the resulting data set was fitted to the equation “log(inhibitor) vs. normalized response” using GraphPad Prism 5 (La Jolla, CA). IC50 values were obtained from the fitted parameters of the mean of at least three independent experiments. Cp40 was always used as the internal control.

[4] = pH adjusted upon addition of PBS

- AUC(0-t) ([1]; cynomolgus monkey, plasma, iv, 2 mg/kg, single i.v. injection, read-out: AUC0-120h): 304 to 312 µM·h
- AUC0-120 h greater than Cp40-KK ([1]; single i.v. injection): over 3.5 fold
- pH (after additional lyophilization from H2O): 9.5
- pH of the peptide solution in PBS (at the stated concentration, indicator paper): 8.5
- Conc. (mg/ml) at which pH in the 7 range was observed [4]: 7 mg/ml and 7.0 mg/ml
- pH [4]: 7.5*
Compound: CC[C@H](C)[C@H](NC(=O)[C@H](N)Cc1ccc(O)cc1)C(=O)N[C@H]1CSSC[C@@H](C(=O)N(C)[C@H](C(=O)N[C@@H](CCCCN)C(=O)N[C@@H](CCCCN)C(=O)N[C@@H](CCCCN)C(N)=O)[C@@H](C)CC)NC(=O)[C@H](CCCNC(=N)N)NC(=O)[C@H](Cc2c[nH]cn2)NC(=O)[C@H](C)NC(=O)CN(C)C(=O)[C@H](Cc2c[nH]c3ccccc23)NC(=O)[C@H](CC(=O)O)NC(=O)[C@H](CCC(N)=O)NC(=O)[C@H](Cc2cn(C)c3ccccc23)NC(=O)[C@H](C(C)C)NC1=O [Cp40-KKK, DTyr-Ile-[Cys-Val-Trp(Me)-Gln-Asp-Trp-Sar-Ala-His-Arg-Cys]-mlle-Lys-Lys-Lys—NH2]
- in vivo Lys cleavage in plasma ([1]; after i.v. injection): metabolized into Cp40-KK and small amounts of Cp40-K
- complement classical pathway inhibitory activity [2]: inhibitory activity in a dose-dependent manner
- IC50 [3]: 81.7 ± 5.3 nM
